Data reported in ChEMBL document CHEMBL4433195, “Biphenyloxy-alkyl-piperidine and azepane derivatives as histamine H3 receptor ligands” (Bioorg Med Chem, 2017).

Legend:
Histamine H3 receptor [1] = biological target: T1, Histamine H3 receptor (Homo sapiens, UniProt Q9Y5N1); assay: Displacement of [3H]-N-alpha-methylhistamine from human recombinant full length H3R expressed in HEK293 cell membranes incubated for 90 mins by liquid scintillation counting method
[2] = biological target: T2, Voltage-gated inwardly rectifying potassium channel KCNH2 (Homo sapiens, UniProt Q12809); assay: Displacement of [3H]Dofetilide from human ERG human expressed in HEK293 cells incubated for 45 mins; format: cell-based
T2 sequence (Q12809 whole entry): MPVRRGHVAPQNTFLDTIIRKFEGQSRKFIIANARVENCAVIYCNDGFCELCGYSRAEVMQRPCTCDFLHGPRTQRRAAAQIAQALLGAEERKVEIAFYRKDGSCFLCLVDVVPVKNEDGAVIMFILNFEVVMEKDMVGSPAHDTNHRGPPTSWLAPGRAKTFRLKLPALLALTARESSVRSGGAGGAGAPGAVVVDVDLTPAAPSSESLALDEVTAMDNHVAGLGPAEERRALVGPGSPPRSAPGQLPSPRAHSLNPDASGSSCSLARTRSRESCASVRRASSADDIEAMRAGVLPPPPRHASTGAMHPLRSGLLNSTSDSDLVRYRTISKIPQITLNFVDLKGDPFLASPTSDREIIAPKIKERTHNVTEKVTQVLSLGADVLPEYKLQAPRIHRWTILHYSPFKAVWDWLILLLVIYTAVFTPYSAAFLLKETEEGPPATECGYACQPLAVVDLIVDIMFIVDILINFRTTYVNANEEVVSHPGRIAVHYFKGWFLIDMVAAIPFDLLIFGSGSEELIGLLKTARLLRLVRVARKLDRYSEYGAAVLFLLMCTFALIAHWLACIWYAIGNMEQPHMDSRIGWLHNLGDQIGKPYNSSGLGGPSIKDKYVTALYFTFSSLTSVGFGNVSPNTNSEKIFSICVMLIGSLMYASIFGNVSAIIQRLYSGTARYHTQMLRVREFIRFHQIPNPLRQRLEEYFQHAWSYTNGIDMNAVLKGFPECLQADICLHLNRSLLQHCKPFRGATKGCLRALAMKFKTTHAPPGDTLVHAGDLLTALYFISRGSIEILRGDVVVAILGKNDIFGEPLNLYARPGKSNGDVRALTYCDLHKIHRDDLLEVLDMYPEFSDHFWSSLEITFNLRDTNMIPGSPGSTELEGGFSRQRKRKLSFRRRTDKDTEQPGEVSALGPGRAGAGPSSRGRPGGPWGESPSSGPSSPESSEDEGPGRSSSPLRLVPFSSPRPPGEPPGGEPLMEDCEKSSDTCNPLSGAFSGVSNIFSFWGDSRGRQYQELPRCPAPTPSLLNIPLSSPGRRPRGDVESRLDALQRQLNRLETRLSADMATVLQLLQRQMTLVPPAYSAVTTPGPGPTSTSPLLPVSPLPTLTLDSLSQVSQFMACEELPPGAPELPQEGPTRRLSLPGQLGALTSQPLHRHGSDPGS

Histamine H4 receptor [3] = biological target: T3, Histamine H4 receptor (Homo sapiens, UniProt Q9H3N8); assay: Antagonist activity at human H4R expressed in HEK293 cells incubated for 20 mins by [35S]GTPgammaS binding assay; format: functional, cell-based
T3 sequence (Q9H3N8 whole entry): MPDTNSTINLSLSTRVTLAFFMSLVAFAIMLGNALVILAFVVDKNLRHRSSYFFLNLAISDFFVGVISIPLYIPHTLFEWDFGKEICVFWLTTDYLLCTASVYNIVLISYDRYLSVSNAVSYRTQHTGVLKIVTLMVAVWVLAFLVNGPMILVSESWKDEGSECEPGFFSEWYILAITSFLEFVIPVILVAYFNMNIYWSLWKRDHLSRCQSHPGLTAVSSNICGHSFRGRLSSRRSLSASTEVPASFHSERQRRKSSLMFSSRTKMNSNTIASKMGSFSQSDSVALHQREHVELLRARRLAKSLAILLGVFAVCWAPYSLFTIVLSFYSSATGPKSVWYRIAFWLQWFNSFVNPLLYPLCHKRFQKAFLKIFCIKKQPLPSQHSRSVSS

Homo sapiens = species on record: Homo sapiens; assay: Selectivity ratio of Ki for human H4R to Ki for human H3R
[4] = Metabolic stability in human recombinant liver microsomes assessed as metabolite M formation at 50 uM preincubated for 5 mins followed by NADPH addition and measured after 120 mins by UPLC-MS analysis; format: ADME, Microsome; conditions: 2 h
Cytochrome P450 3A4 [5] = biological target: T4, Cytochrome P450 3A4 (Homo sapiens, UniProt P08684); assay: Activation of human recombinant CYP3A4 using luciferin as substrate at 12.5 to 25 uM preincubated for 10 mins followed by substrate addition and measured after 50 mins in presence of NADPH by CYP450-Glo assay; format: ADME; conditions: recombinant enzyme
T4 sequence (P08684 whole entry): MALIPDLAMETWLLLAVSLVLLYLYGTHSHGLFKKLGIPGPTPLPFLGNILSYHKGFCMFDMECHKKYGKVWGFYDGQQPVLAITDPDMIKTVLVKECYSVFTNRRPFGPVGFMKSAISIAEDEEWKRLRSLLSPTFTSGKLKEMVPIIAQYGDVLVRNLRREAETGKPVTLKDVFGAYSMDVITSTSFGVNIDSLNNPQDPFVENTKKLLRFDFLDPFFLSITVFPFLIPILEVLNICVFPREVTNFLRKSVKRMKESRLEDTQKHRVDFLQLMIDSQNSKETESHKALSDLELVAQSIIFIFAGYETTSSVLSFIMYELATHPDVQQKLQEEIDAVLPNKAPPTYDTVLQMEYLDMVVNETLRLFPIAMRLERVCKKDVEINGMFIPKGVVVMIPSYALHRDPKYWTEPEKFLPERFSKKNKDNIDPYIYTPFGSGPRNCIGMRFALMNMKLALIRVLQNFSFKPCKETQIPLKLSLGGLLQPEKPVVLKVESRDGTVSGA

[6] = Metabolic stability in human recombinant liver microsomes assessed as metabolite M1 formation at 50 uM preincubated for 5 mins followed by NADPH addition and measured after 120 mins by UPLC-MS analysis; format: ADME, Microsome; conditions: 2 h
[7] = Mutagenicity in Salmonella typhimurium TA98 assessed as fold increase in number of positive wells over the solvent control baseline upto 10 uM incuabted for 90 mins and measured after 48 hrs by Ames test; format: toxicity; conditions: salmonella enterica subsp. enterica serovar typhimurium
[8] = biological target: T2, Voltage-gated inwardly rectifying potassium channel KCNH2
[9] = biological target: Muscarinic acetylcholine receptor M3 (Cavia porcellus) (UniProt Q8VH26); assay: Antagonist activity at muscarinic M3 receptor in guinea-pig ileum assessed as inhibition of carbachol-induced contractions incubated for 15 mins; format: tissue-based
Muscarinic acetylcholine receptor M3 (Cavia porcellus), sequence (Q8VH26 1-587): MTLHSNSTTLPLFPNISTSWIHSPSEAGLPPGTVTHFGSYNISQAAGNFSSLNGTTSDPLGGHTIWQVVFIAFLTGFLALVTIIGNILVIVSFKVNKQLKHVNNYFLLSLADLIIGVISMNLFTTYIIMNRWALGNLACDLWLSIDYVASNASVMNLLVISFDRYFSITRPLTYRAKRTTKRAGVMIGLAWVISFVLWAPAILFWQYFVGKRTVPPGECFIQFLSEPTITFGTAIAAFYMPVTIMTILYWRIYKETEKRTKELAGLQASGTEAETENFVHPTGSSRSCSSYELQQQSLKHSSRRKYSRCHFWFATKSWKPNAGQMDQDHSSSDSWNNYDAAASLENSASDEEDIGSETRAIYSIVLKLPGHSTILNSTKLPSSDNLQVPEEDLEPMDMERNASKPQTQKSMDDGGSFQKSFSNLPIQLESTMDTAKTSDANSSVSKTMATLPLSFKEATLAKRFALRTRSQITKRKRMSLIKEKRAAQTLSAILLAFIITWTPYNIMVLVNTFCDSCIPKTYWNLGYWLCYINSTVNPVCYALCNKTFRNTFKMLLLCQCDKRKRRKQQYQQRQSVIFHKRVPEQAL

Histamine H4 receptor [10] = biological target: T3, Histamine H4 receptor; assay: Displacement of [3H]histamine from human recombinant H4R expressed in CHO cells incubated for 60 mins by microbeta scintillation counter method; format: cell-based
[11] = Mutagenicity in Salmonella typhimurium TA100 assessed as fold increase in number of positive wells over the solvent control baseline upto 10 uM incuabted for 90 mins and measured after 48 hrs by Ames test; format: toxicity; conditions: salmonella enterica subsp. enterica serovar typhimurium
Cytochrome P450 3A4 [12] = biological target: T4, Cytochrome P450 3A4; assay: Inhibition of human recombinant CYP3A4 using luciferin as substrate at 0.025 to 25 uM preincubated for 10 mins followed by substrate addition and measured after 50 mins in presence of NADPH by CYP450-Glo assay; format: ADME; conditions: recombinant enzyme
[13] = biological target: Histamine H1 receptor (Cavia porcellus) (UniProt P31389); assay: (§1) Antagonist activity at histamine H1 receptor in guinea-pig ileum assessed as inhibition of histamine-induced contractions incubated for 15 mins; format: tissue-based
Histamine H1 receptor (Cavia porcellus), sequence (P31389 whole entry): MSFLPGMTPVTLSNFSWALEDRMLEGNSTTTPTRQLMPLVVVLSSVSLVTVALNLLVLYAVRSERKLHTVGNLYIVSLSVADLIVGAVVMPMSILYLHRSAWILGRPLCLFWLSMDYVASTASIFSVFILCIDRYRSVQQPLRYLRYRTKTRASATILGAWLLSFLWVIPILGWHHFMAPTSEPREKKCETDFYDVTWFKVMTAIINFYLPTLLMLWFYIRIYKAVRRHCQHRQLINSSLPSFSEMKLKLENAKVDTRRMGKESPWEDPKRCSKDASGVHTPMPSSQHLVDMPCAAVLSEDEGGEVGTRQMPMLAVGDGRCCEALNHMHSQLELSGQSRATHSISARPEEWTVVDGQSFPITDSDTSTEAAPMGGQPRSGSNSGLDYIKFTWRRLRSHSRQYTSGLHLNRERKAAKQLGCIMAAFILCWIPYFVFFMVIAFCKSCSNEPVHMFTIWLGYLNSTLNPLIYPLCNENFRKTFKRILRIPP

Histamine H1 receptor [14] = biological target: Histamine H1 receptor (Cavia porcellus, UniProt P31389); assay: as §1; format: tissue-based; conditions: read-out: pA2 (converted)
Histamine H1 receptor (Cavia porcellus, UniProt P31389), sequence (P31389 whole entry): as above

[15] = Ratio of test compound IC50 to doxorubicin IC50 for cytotoxicity against human HepG2 cells assessed as cell viability incubated for 72 hrs by cellTiter 96 AQueous non-radioactive cell proliferation assay; format: cell-based; conditions: read-out: Ratio IC50
Histamine H3 receptor [16] = biological target: T1, Histamine H3 receptor; assay: Antagonist activity at human H3R expressed in HEK293 cells assessed as reduction in R)(-)-alpha methylhistamine-induced inhibition of forskolin-induced cAMP accumulation by TR-FRET based LANCE ultra cAMP immunoassay; format: functional, cell-based
[17] = Metabolic stability in human recombinant liver microsomes assessed as metabolite M3 formation at 50 uM preincubated for 5 mins followed by NADPH addition and measured after 120 mins by UPLC-MS analysis; format: ADME, Microsome; conditions: 2 h
HepG2 = assay: Cytotoxicity against human HepG2 cells assessed as cell viability incubated for 72 hrs by cellTiter 96 AQueous non-radioactive cell proliferation assay; format: cell-based; conditions: HepG2, 72 h
[18] = Metabolic stability in human recombinant liver microsomes assessed as retention time at 50 uM preincubated for 5 mins followed by NADPH addition and measured after 120 mins by UPLC-MS analysis; format: ADME, Microsome; conditions: 2 h
[19] = Metabolic stability in human recombinant liver microsomes assessed as metabolite M2 formation at 50 uM preincubated for 5 mins followed by NADPH addition and measured after 120 mins by UPLC-MS analysis; format: ADME, Microsome; conditions: 2 h
Cytochrome P450 2D6 = Cytochrome P450 2D6 (Homo sapiens, UniProt P10635); assay: Inhibition of human recombinant CYP2D6 at >2.5 uM using luciferin as substrate preincubated for 10 mins followed by substrate addition and measured after 50 mins in presence of NADPH by CYP450-Glo assay; format: ADME; conditions: recombinant enzyme
Cytochrome P450 2D6, sequence (P10635 whole entry): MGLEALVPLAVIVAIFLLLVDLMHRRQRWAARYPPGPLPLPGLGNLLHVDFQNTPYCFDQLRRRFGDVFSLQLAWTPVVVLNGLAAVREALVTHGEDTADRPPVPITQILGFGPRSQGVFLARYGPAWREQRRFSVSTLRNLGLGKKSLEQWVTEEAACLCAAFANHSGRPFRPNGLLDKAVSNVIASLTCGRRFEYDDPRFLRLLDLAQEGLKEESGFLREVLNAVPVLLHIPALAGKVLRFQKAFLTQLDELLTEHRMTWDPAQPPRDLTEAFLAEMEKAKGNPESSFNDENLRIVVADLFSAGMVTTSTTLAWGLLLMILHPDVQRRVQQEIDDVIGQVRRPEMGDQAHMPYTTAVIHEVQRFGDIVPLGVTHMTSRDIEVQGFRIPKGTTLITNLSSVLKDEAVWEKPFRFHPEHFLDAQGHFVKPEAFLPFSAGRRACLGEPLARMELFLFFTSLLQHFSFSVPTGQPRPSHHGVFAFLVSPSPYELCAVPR

Rattus norvegicus [20] = species on record: Rattus norvegicus; assay: Reversal of RAMH-induced dipsogenia in Wistar rat (Krf:(WI) WU) assessed as inhibition of RAMH-induced drinking response pretreated for 30 mins followed by RAMH stimulation for 20 mins and measured for 30 mins; format: functional
Histamine H4 receptor [21] = biological target: T3, Histamine H4 receptor; assay: Binding affinity to human H4R
Histamine H3 receptor [22] = biological target: T1, Histamine H3 receptor; assay: Binding affinity to human H3R expressed in rat C6 cells; format: cell-based
[23] = Intrinsic clearance in rat liver microsomes measured up to 30 mins; format: ADME, Microsome; conditions: read-out: CLH
[24] = Half life in rat liver microsomes measured up to 30 mins; format: ADME, Microsome
[25] = Metabolic stability in rat liver microsomes assessed as retention time at 50 uM preincubated for 5 mins followed by NADPH addition and measured after 30 mins UPLC-MS analysis; format: ADME, Microsome; conditions: 0.5 h
Histamine H1 receptor [26] = biological target: Histamine H1 receptor (Homo sapiens, UniProt P35367); assay: Displacement of [3H]pyrilamine from human H1 receptor expressed in CHOK1 cells incubated for 60 mins by microbeta scintillation counter method; format: cell-based
Histamine H1 receptor (Homo sapiens, UniProt P35367), sequence (P35367 whole entry): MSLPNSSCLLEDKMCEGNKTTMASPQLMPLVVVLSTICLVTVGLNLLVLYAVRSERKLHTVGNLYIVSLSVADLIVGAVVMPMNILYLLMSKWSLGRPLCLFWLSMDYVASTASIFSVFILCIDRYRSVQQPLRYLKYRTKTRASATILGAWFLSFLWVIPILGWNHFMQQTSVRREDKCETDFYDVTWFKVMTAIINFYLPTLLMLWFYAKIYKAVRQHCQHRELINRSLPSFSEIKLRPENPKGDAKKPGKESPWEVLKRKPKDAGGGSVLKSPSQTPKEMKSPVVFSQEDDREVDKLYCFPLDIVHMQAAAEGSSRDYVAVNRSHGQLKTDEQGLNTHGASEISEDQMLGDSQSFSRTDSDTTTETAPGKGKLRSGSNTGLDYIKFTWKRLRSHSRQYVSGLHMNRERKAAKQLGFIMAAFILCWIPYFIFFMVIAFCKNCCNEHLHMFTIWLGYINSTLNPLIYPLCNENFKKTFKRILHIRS

[27] = Metabolic stability in rat liver microsomes assessed as metabolite M2 formation at 50 uM preincubated for 5 mins followed by NADPH addition and measured after 30 mins UPLC-MS analysis; format: ADME, Microsome; conditions: 0.5 h
[28] = Metabolic stability in rat liver microsomes assessed as metabolite M1 formation at 50 uM preincubated for 5 mins followed by NADPH addition and measured after 30 mins UPLC-MS analysis; format: ADME, Microsome; conditions: 0.5 h
[29] = Metabolic stability in rat liver microsomes assessed as metabolite M3 formation at 50 uM preincubated for 5 mins followed by NADPH addition and measured after 30 mins UPLC-MS analysis; format: ADME, Microsome; conditions: 0.5 h
Rattus norvegicus [30] = assay: Reversal of RAMH-induced dipsogenia in Wistar rat (Krf:(WI) WU) assessed as inhibition of RAMH-induced drinking response at 1.25 mg/kg, ip pretreated for 30 mins followed by RAMH stimulation for 20 mins and measured for 30 mins; format: functional
Histamine H3 receptor [31] = biological target: T1, Histamine H3 receptor; assay: Binding affinity to human H3R

T1 sequence (Q9Y5N1 whole entry): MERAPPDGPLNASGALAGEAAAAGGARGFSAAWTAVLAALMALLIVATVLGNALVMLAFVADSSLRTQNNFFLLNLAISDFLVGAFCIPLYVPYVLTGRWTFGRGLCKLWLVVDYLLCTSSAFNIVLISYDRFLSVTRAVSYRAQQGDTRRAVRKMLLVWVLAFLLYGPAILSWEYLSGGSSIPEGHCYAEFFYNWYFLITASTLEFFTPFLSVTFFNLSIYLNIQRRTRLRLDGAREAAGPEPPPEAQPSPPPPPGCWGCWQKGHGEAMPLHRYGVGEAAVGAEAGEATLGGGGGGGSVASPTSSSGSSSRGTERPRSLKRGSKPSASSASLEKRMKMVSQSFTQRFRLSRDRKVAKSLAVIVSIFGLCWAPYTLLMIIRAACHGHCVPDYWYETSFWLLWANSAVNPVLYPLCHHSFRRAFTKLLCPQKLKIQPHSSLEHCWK

CC1CCN(CCCCCOc2cccc(-c3ccccc3)c2)CC1
Ki (Histamine H3 receptor [1]): 0.157 µM

CC1CCN(CCCCCCOc2cccc(-c3ccccc3)c2)CC1
Ki (Histamine H3 receptor [1]): 0.159 µM

c1ccc(-c2cccc(OCCCCCCN3CCCCCC3)c2)cc1
Ki (Histamine H3 receptor [1]): 0.018 µM

CC1CCN(CCCCCOc2ccc(-c3ccccc3)cc2)CC1
Ki (Histamine H3 receptor [1]): 0.089 µM

CN1C[C@H]2CCN(c3ccc(-c4ccc(-n5ncccc5=O)cc4)cc3)[C@H]2C1
Ki [2]: 8.83 µM | Ki (Histamine H4 receptor [3]): > 10 µM

c1ccc(-c2ccc(OCCCCCCN3CCCCC3)cc2)cc1
Ki (Histamine H3 receptor [1]): 0.092 µM

c1ccc(-c2cccc(OCCCCCN3CCCCCC3)c2)cc1
Ki (Histamine H3 receptor [1]): 0.115 µM

O=C(O)C(=O)O.c1ccc(-c2ccc(OCCCCCN3CCCCC3)cc2)cc1
Ratio Ki (Homo sapiens): 600 | Drug metabolism [4]: Metabolite_Notdetected | Activity (Cytochrome P450 3A4 [5]): Active | Drug metabolism [6]: Metabolite_Notdetected | fold change (FC) [7]: < 2 | IC50 [8]: 1.75 µM | pKb [9]: 6.35 | Ki (Histamine H4 receptor [10]): 19.9 µM | fold change (FC) [11]: < 2 | inhibition (INH) (Cytochrome P450 3A4 [12]): Not Active | Activity [13]: Dose-dependent effect | Kb (Histamine H1 receptor [14]): 0.295 µM | selectivity ratio at 72 h [15]: > 30 | Activity (Histamine H3 receptor [16]): Dose-dependent effect | IC50 (Histamine H3 receptor [16]): 0.00404 µM | Drug metabolism [17]: Metabolite_Notdetected | IC50 (HepG2): 17.2 µM | Retention_time [18]: 5.83 min | Drug metabolism [19]: Metabolite_Notdetected | inhibition (INH) (Cytochrome P450 2D6): Active | ED50 (Rattus norvegicus [20]): 2.72 mg/kg | inhibition (Rattus norvegicus [20]): Dose-dependent effect | Ki (Histamine H3 receptor [1]): 0.025 µM

CC1CCN(CCCCCCOc2ccc(-c3ccccc3)cc2)CC1
Ki (Histamine H3 receptor [1]): 0.266 µM

C[C@@H]1CC[C@@H](C)N1CCCOc1ccc(-c2ccc(C(=O)N3CCOCC3)cc2)cc1
Ki (Histamine H4 receptor [21]): > 10 µM | Ki (Histamine H3 receptor [22]): 0.00042 µM

O=C(O)C(=O)O.c1ccc(-c2ccc(OCCCCCN3CCCCCC3)cc2)cc1
Drug metabolism [4]: Metabolite_Detected | CLint scaled [23]: 52.9 mL/min/kg | Activity (Cytochrome P450 3A4 [5]): Active | Drug metabolism [6]: Metabolite_Detected | pKb [9]: 6.16 | Ki (Histamine H4 receptor [10]): 21.8 µM | half-life [24]: 23.6 min | inhibition (INH) (Cytochrome P450 3A4 [12]): Not Active | Retention_time [25]: 6 min | Ki (Histamine H1 receptor [26]): 1.27 µM | Activity [13]: Dose-dependent effect | Kb (Histamine H1 receptor [14]): 0.724 µM | Activity (Histamine H3 receptor [16]): Dose-dependent effect | IC50 (Histamine H3 receptor [16]): 0.00908 µM | Drug metabolism [17]: Metabolite_Detected | Retention_time [18]: 6.08 min | Drug metabolism [19]: Metabolite_Detected | Drug metabolism [27]: Metabolite_Detected | inhibition (INH) (Cytochrome P450 2D6): Active | Drug metabolism [28]: Metabolite_Detected | Drug metabolism [29]: Metabolite_Detected | ED50 (Rattus norvegicus [20]): 1.75 mg/kg | inhibition (Rattus norvegicus [20]): Dose-dependent effect | Ki (Histamine H3 receptor [1]): 0.034 µM

Clc1ccc(CCCOCCCN2CCCCC2)cc1 [PITOLISANT]
inhibition in vivo at 1.25 mg/kg (Rattus norvegicus [30]): 87% | IC50 [8]: 1.7 µM

C[C@@H]1CCCN1[C@H]1C[C@H](c2ccc(-c3ccc(C#N)cc3)cc2)C1
Ki (Histamine H3 receptor [31]): 0.00017 µM

c1ccc(-c2cccc(OCCCCCN3CCCCC3)c2)cc1
Ki (Histamine H3 receptor [1]): 0.076 µM

c1ccc(-c2cccc(OCCCCCCN3CCCCC3)c2)cc1
Ki (Histamine H3 receptor [1]): 0.122 µM

CN1[C@@H]2CC[C@H]1C[C@@H](OC(=O)C(CO)c1ccccc1)C2 (stereo partly drawn)
pKb [9]: 8.99

COc1cccc2c1C(=O)c1c(O)c3c(c(O)c1C2=O)C[C@@](O)(C(=O)CO)C[C@@H]3O[C@H]1C[C@H](N)[C@H](O)[C@H](C)O1 [DOXORUBICIN]
IC50 (HepG2): 0.392 µM

c1ccc(-c2ccc(OCCCCCCN3CCCCCC3)cc2)cc1
Ki (Histamine H3 receptor [1]): 0.151 µM

c1ccc(CN(CC2=NCCN2)c2ccccc2)cc1 [ANTAZOLINE]
Kb (Histamine H1 receptor [14]): 0.0724 µM

CC(C)(C)c1ccc(OCCCN2CCCCC2)cc1
Ki (Histamine H3 receptor [1]): 0.131 µM
